How the values were obtained:
human CYP4A11 = human CYP4A11 (Homo sapiens (Human), UniProt Q02928); experiment: Inhibition test against 20-HETE producing enzyme CYP4A11 (luciferine derivative, luminescence); format: biochemical
Description: (§1) (1) Inhibition Test for Each Compound of the Present Invention Against 20-HETE Producing Enzymes (CYP4F2 and CYP4A11)
(§2) In the CYP4F2 inhibition test, the reaction solution containing each compound [final concentration of 50 mM, KPO4 (pH 7.4), 2.5 μM luciferine derivative, and 1 mM NADPH] was added to an Escherichia coli membrane fraction (100 μg/mL protein) in which human CYP4F2 had been expressed. In the CYP4A11 inhibition test, the reaction solution containing each compound [final concentration of 100 mM, Tris-HCl (pH 7.5), 60 μM luciferine derivative, 1.3 mM NADP^+, 3.3 mM Glucose 6-Phosphate, 3.3 mM MgCl2, and 0.4 U/mL Glucose 6-Phosphate dehydrogenase] was added to an Escherichia coli membrane fraction (100 μg/mL protein) in which human CYP4A11 had been expressed. Following this, the membrane fraction was left to stand at room temperature for 60 minutes to perform an enzymatic reaction. After the reaction, a luciferine detection reagent was added, and the luminescence value was measured using a plate reader. By using that value, the percent inhibition of 20-HETE producing enzyme (%) was calculated according to the equation described below, and the 50% inhibitory concentration (IC50 value) for each compound was calculated. Percent inhibition of 20-HETE producing enzyme (%)=[1−(A−B)/(C−B)]*100
(§3) A: Luminescence value with addition of compound
(§4) B: Luminescence value without addition of compound and enzyme

human CYP4F2 = human CYP4F2 (Homo sapiens (Human), UniProt P78329); experiment: Inhibition test against 20-HETE producing enzyme CYP4F2 (luciferine derivative, luminescence); format: biochemical
Description: as §1, §2, §3, §4

[1] = E. coli membrane fraction expressing human CYP4A11, 60 μM luciferine derivative, room temperature 60 minutes
[2] = E. coli membrane fraction expressing human CYP4F2, 2.5 μM luciferine derivative, room temperature 60 minutes
[3] = human CYP4A11, luciferine derivative, luminescence
[4] = human CYP4F2, luciferine derivative, luminescence

Chain of human CYP4A11 (Q02928 5-519): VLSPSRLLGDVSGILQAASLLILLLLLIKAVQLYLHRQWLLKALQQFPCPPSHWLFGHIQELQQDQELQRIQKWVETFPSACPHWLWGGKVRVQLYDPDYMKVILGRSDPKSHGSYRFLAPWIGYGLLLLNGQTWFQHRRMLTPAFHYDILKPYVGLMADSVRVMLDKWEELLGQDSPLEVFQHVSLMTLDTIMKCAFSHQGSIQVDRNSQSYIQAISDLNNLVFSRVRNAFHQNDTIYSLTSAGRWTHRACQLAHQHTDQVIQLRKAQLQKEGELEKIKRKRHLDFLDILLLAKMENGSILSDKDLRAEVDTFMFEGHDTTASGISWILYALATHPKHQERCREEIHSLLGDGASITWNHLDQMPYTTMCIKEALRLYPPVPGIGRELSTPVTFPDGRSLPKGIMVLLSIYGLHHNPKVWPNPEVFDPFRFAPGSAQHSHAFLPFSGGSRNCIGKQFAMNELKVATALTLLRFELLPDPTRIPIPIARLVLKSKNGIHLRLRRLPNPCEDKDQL
Chain of human CYP4F2 (P78329 5-520): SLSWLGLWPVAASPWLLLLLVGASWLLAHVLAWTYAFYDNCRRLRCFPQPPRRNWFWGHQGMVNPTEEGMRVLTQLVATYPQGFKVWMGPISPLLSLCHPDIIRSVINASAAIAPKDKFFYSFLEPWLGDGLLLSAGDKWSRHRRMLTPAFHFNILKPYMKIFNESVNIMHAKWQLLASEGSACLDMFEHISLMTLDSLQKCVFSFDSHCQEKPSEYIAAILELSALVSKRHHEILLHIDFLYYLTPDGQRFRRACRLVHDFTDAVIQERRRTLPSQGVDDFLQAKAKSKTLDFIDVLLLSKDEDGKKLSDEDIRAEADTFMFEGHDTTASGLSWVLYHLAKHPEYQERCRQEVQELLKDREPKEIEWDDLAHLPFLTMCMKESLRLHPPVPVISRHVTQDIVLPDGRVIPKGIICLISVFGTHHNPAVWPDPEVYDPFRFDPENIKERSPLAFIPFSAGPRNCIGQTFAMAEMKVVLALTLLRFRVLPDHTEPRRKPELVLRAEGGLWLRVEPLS

IC50 (human CYP4A11; [1]) [nM]	IC50 (human CYP4F2; [2]) [nM]	IC50 (human CYP4A11; [3]) [nM]	IC50 (human CYP4F2; [4]) [nM]	Compound
25	1300	–	–	O=C(O)CC[C@H]1CCC[C@@H](COc2ccc(-c3ccn[nH]3)nc2)C1 (racemic) [Example 2-6, cis-3-[3-[[6-(1H-Pyrazol-5-yl)-3-pyridinyl]oxymethyl]cyclohexyl]propanoic Acid (Racemate)]
51	1900	–	–	O=C(O)[C@H]1CCC[C@H](COc2ccc(-c3ccn[nH]3)nc2)C1 (racemic) [Example 9-1, trans-3-[[6-(1H-Pyrazol-5-yl)-3-pyridinyl]oxymethyl]-1-cyclohexanecarboxylic Acid (Racemate)]
20	400	–	–	O=C(O)C1CC1c1cccc(COc2ccc(-c3ccn[nH]3)nc2)c1 (single isomer, unassigned) [Example 26-1, trans-2-[3-[[6-(1H-Pyrazol-5-yl)-3-pyridinyl]oxymethyl]phenyl]-1-cyclopropanecarboxylic Acid]
–	–	250	520	O=C(O)C1CC1c1ccc(CCOc2ccc(-c3ccn[nH]3)nc2)c(F)c1 (single isomer, unassigned) [Example 71-17]
–	–	15	210	O=C(O)C1CC1c1cccc(COc2ccc(-c3ccn[nH]3)nc2)c1F (single isomer, unassigned) [Example 71-45, 2-[2-Fluoro-3-[[6-(1H-pyrazol-5-yl)pyridin-3-yl]oxymethyl]phenyl]cyclopropane-1-carboxylic Acid]
–	–	78	1300	O=C(O)C1CC1c1ccc(F)c(CCOc2ccc(-c3ccn[nH]3)nc2)c1 (single isomer, unassigned) [Example 74-7]
–	–	77	410	O=C(O)C1CC1c1ccc(F)c(CCOc2ccc(-c3ccn[nH]3)nc2)c1 (single isomer, unassigned) [Example 74-8]
–	–	56	2600	O=C(O)C1CC1c1cc(F)cc(CCOc2ccc(-c3ccn[nH]3)nc2)c1 (single isomer, unassigned) [Example 74-10]
–	–	78	1200	O=C(O)C1CC1c1cc(F)cc(CCOc2ccc(-c3ccn[nH]3)nc2)c1 (single isomer, unassigned) [Example 74-11]
–	–	7.7	20	O=C(O)C1CCc2ccc(COc3ccc(-c4[nH]ncc4Cl)nc3)cc2O1 (single isomer, unassigned) [Example 75-7]
–	–	67	67	O=C(O)C1CCc2ccc(COc3ccc(-c4[nH]ncc4Cl)nc3)cc2O1 (single isomer, unassigned) [Example 75-8]
37	15000	–	–	O=C(O)c1ccc(COc2ccc(-c3ccn[nH]3)nc2)cc1 [Example 1-1, 4-[[6-(1H-Pyrazol-5-yl)-3-pyridinyl]oxymethyl]benzoic Acid]
250	42000	–	–	CC(Oc1ccc(-c2ccn[nH]2)nc1)c1ccc(C(=O)O)cc1 (centres unmarked) [Example 1-2]
79	220	–	–	O=C(O)CCc1ccc(COc2ccc(-c3ccn[nH]3)nc2)cc1 [Example 1-3]
110	16000	–	–	O=C(O)CCc1ccccc1COc1ccc(-c2ccn[nH]2)nc1 [Example 1-4]
150	3500	–	–	O=C(O)c1ccc(CCOc2ccc(-c3ccn[nH]3)nc2)cc1 [Example 1-5]
340	2300	–	–	O=C(O)c1cccc(CCOc2ccc(-c3ccn[nH]3)nc2)c1 [Example 1-6]
2400	11000	–	–	O=C(O)c1ccccc1CCOc1ccc(-c2ccn[nH]2)nc1 [Example 1-7]
78	2600	–	–	O=C(O)c1ccc(CCCOc2ccc(-c3ccn[nH]3)nc2)cc1 [Example 1-8]
79	480	–	–	O=C(O)c1cccc(CCCOc2ccc(-c3ccn[nH]3)nc2)c1 [Example 1-9]
4200	27000	–	–	O=C(O)c1ccccc1CCCOc1ccc(-c2ccn[nH]2)nc1 [Example 1-10]
24	43000	–	–	O=C(O)CCCc1ccccc1COc1ccc(-c2ccn[nH]2)nc1 [Example 1-11]
170	> 50000	–	–	O=C(O)CCCCc1ccccc1COc1ccc(-c2ccn[nH]2)nc1 [Example 1-12]
31	2700	–	–	O=C(O)Cc1ccc(CCOc2ccc(-c3ccn[nH]3)nc2)cc1 [Example 1-13]
21	7800	–	–	O=C(O)Cc1cccc(CCOc2ccc(-c3ccn[nH]3)nc2)c1 [Example 1-14]
210	670	–	–	O=C(O)CCc1ccc(CCOc2ccc(-c3ccn[nH]3)nc2)cc1 [Example 1-15]
36	1100	–	–	O=C(O)CCc1cccc(CCOc2ccc(-c3ccn[nH]3)nc2)c1 [Example 1-16]
16	5100	–	–	O=C(O)CCc1ccccc1CCCOc1ccc(-c2ccn[nH]2)nc1 [Example 1-17]

IC50 (human CYP4A11; [1]) [nM]	IC50 (human CYP4F2; [2]) [nM]	IC50 (human CYP4A11; [3]) [nM]	IC50 (human CYP4F2; [4]) [nM]	Compound
14	330	–	–	O=C(O)c1ccc(CCCCOc2ccc(-c3ccn[nH]3)nc2)cc1 [Example 1-18]
9.5	220	–	–	O=C(O)c1cccc(CCCCOc2ccc(-c3ccn[nH]3)nc2)c1 [Example 1-19]
16	9200	–	–	O=C(O)C12CCC(COc3ccc(-c4[nH]ncc4Cl)nc3)(CC1)CC2 [Example 1-20]
29	31000	–	–	O=C(O)C12CCC(COc3cnc(-c4ccn[nH]4)c(F)c3)(CC1)CC2 [Example 1-21]
38	> 50000	–	–	Cc1cc(OCC23CCC(C(=O)O)(CC2)CC3)cnc1-c1ccn[nH]1 [Example 1-22]
320	20000	–	–	O=C(O)CCC(=O)N1CCC[C@H](COc2ccc(-c3ccn[nH]3)nc2)C1 [Example 1-23]
170	15000	–	–	O=C(O)CCC(=O)N1CCC[C@@H](COc2ccc(-c3ccn[nH]3)nc2)C1 [Example 1-24]
120	1600	–	–	O=C(O)Cn1cc(-c2cccc(COc3ccc(-c4ccn[nH]4)nc3)c2)ccc1=O [Example 1-25]
43	14000	–	–	O=C(O)C1CC(CCOc2ccc(-c3ccn[nH]3)nc2)C1 (centres unmarked) [Example 1-26]
38	41000	–	–	O=C(O)C1CC1CCCOc1ccc(-c2ccn[nH]2)nc1 (centres unmarked) [Example 1-27]
74	19000	–	–	O=C(O)C1CC1CCCOc1ccc(-c2ccn[nH]2)nc1 (centres unmarked) [Example 1-28]
30	360	–	–	O=C(O)C1CCCC(CCCOc2ccc(-c3ccn[nH]3)nc2)C1 (centres unmarked) [Example 1-29]
34	4100	–	–	O=C(O)C12CCC(CCCOc3ccc(-c4ccn[nH]4)nc3)(CC1)CC2 [Example 1-30]
1700	160	–	–	CC(C)(CC(=O)N1CCC(CCCOc2ccc(-c3ccn[nH]3)nc2)CC1)C(=O)O [Example 1-31]
9300	3800	–	–	CC(C)(CC(=O)N1CCCC(CCCOc2ccc(-c3ccn[nH]3)nc2)C1)C(=O)O (centres unmarked) [Example 1-32]
74	15000	–	–	O=C(O)C1(CCCCOc2ccc(-c3ccn[nH]3)nc2)CCC1 [Example 1-33]
38	1800	–	–	O=C(O)C1(CCCCOc2ccc(-c3ccn[nH]3)nc2)CCCC1 [Example 1-34]
84	2200	–	–	O=C(O)C1(CCCCOc2ccc(-c3ccn[nH]3)nc2)CCCCC1 [Example 1-35]
110	1300	–	–	CC(C)(Oc1cccc(CCCCOc2ccc(-c3ccn[nH]3)nc2)c1)C(=O)O [Example 1-36]
21	94	–	–	O=C(O)c1cccc(S(=O)(=O)N2CCC[C@@H](COc3ccc(-c4ccn[nH]4)nc3)C2)c1 [Example 1-37]
42	1200	–	–	CC(C)(CCc1cc(COc2ccc(-c3ccn[nH]3)nc2)ccn1)C(=O)O [Example 1-38]
420	9800	–	–	CC(C)(CCc1cccc(COc2ccc(-c3ccn[nH]3)nc2)n1)C(=O)O [Example 1-39]
580	15000	–	–	O=C(O)c1cc(COc2ccc(-c3ccn[nH]3)nc2)ccn1 [Example 1-40, 4-[[6-(1H-Pyrazol-5-yl)-3-pyridinyl]oxymethyl]-2-pyridinecarboxylic Acid]
97	3700	–	–	O=C(O)c1cc(COc2ccc(-c3n[nH]cc3Cl)nc2)ccn1 [Example 1-41, 4-[[6-(4-Chloro-1H-pyrazol-3-yl)-3-pyridinyl]oxymethyl]-2-pyridinecarboxylic Acid]
52	25000	–	–	O=C(O)C1CCC(COc2ccc(-c3ccn[nH]3)nc2)CC1 (centres unmarked) [Example 1-42]
46	18000	–	–	CC(C)(CCCCCOc1ccc(-c2ccn[nH]2)nc1)C(=O)O [Example 1-43, 2,2-Dimethyl-7-[[6-(1H-pyrazol-5-yl)-3-pyridinyl]oxy]heptanoic Acid]
110	510	–	–	O=C(O)C1(CCCCCCOc2ccc(-c3ccn[nH]3)nc2)CCCCC1 [Example 1-44]
